Measurements as given in patent publication US9464326B2, “Total and phosphorylated IL-1 receptor-associated kinase-1 and IL-1 receptor-associated kinase-4 as a biomarker for cancer progression and chemotherapy resistance” (University of Maryland, Baltimore, priority 2012, dated 2016).

What was measured:
[1] = molecular target: IRAK-1 (Homo sapiens, UniProt P51617); conditions: supplier (EMD Millipore) description; cited from earlier work
[2] = test system: patient T-ALL cells; assay: Patient T-ALL numbers in NSG mice (flow cytometry); format: in vivo; conditions: patient T-ALL cells in irradiated NSG mice; 10 mg/Kg i.p. days 7, 10, 13; FIG. 12
Experimental: FIG. 12. […] NSG mice were irradiated (400 cGy) one day prior to intravenous injection of patient T-ALL cells (6×10^6 cells/mouse). Once 100 T-ALL cells/ul of blood were detected, mice were received one intraperitoneal injection with IRAK-1,-4 inhibitor (10 mg/Kg) or an equal volume of control vehicle (DMSO) on days 7, 10 and 13. Numbers of T-ALL cells (CD7^+) in peripheral blood were determined on day 27 and D21 by flow cytometry as described in FIG. 1. All the data shown are representative of two independent experiments (±SD) with three mice per group. Representative dot plots from bone marrow are shown in A (left panel). ANOVA; *P<0.05.
CCRF-CEM (2×10^6) cells were injected intravenously (i.v.) into female NOD.Cg-Prkdc^scid Il2rg^tm1WJl/SzJ IL2RG (NSG) mice (Jackson Laboratories, Bar Harbor, Me.). […] In some experiments mice were injected i.v. with TLR1-TLR2 ligand (2.5 μg) two days after injecting cells. In other experiments mice were injected intraperitoneally (i.p.) with IRAK-1,-4 inhibitor (10 mg/kg) 3, 6, and 9 days (CCRF-CEM cells) or 7, 10, and 13 days (patient T-ALL cells) after detecting CD7^+ T-ALL cells in circulation. The numbers of T-ALL cells in the bone marrow, spleen, liver, and in circulation were determined by staining cells with anti-human CD7 and/or CD5. […]

[3] = test system: CCRF-CEM cells; assay: Cell number and apoptosis assays; format: cell-based, human; conditions: 5 uM, 24-96 hours
Experimental: TLR ligands were diluted 2-fold. Cell lines (25-40×10^3/well) were cultured for 54 hours, whereas fresh patient-derived T-ALL cells (200×10^3/well) were cultured for 30 hours prior to adding [^3H]-thymidine for 18 hours. After this time point, cells were harvested with a Packard Filter-Mate-96 cell harvester (Perkin Elmer, Waltham, Mass., USA) and counted on Packard Top Count-NXT (Perkin Elmer, Waltham, Mass., USA). Results were expressed as average counts per minute (cpm). In some experiments CCRF-CEM cells were pre-treated with TLR1-TLR2 ligand (Pam3CysK4; 2.5 ug/ml) for 48 hrs, washed, and then cultured in the presence of varying concentrations of FBS. Forty-eight hours later, proliferation (±SD) was determined by ^3H-thymidine incorporation. Alternatively, apoptosis was measured by flow cytometry after staining cells with Annexin-V (BD Pharmingen, San Diego, Calif., USA) and propidium iodide (Sigma). Cell number was counted under microscopy by staining cells with trypan blue.
CCRF-CEM cells were treated with IRAK-1,-4 inhibitor for 24, 48, 72, and 96 hours.
The T-ALL cell line CCRF-CEM was cultured in the presence of 0, 1.2, 5, 10, and 20 μM IRAK-1,-4 inhibitor. (FIG. 23). To each concentration of IRAK-1,-4 inhibitor titrating doses of ABT-737 (1000→15 nM) vincristine, VS (10→0.1 nM), and paclitaxol, PAC (100→1.5 nM). […] Apoptosis was measure 48 hours later by staining cells with 7AAD and analyzed by flow cytometry.

[4] = test system: MO; assay: Proliferation (3H-thymidine) of MO; format: cell-based, human; conditions: 3H-thymidine uptake, 72 h
Source text: CCRF-CEM, CEM/C1, CEM/C2, CEM-C7, Jurkat, Loucy, Molt-4, HSB-2, SUP-T1, Hut 78, HH, Hut 102, MO, and H9 T-leukemia and T-lymphoma cell lines were purchased from the American Type Culture Collection (Manassas, Va., USA). All of the cell lines were initially expanded and cryopreserved within one month of receipt. Cells were typically used for 6 months at which time a fresh vial of cryopreserved cells was used. Total T cells from healthy donors were isolated via negative selection followed by positive selection using a CD3+ selection kit (Invitrogen, Carlsbad, Calif.). T cells were isolated from patients with T-ALL bone marrow or peripheral blood samples containing more than 70% leukemia cells using a CD2+ isolation kit (STEMCELL Technologies, Vancouver, Canada). All tissues were collected under institutional IRB-approved protocols and all participants gave written informed assent/consent. For in vitro experiments, T-ALL cells were cultured in AIM-V medium supplemented with 20% human AB serum in the presence of recombinant human stem cell factor (50 ng/mL; Amgen, Thousand Oaks, Calif.), insulin (20 nM; Sigma-Aldrich, St Louis, Mo., USA) and IL-7 (50 ng/mL; R&D Systems, Minneapolis, Minn., USA). […]
Cells were cultured in a 96-well plate (Corning Costar, Corning, N.Y., USA) with various concentrations of TLR ligands 1-9, starting at 10 μg/ml, in a final volume of 200 ul. […] After this time point, cells were harvested with a Packard Filter-Mate-96 cell harvester (Perkin Elmer, Waltham, Mass., USA) and counted on Packard Top Count-NXT (Perkin Elmer, Waltham, Mass., USA). Results were expressed as average counts per minute (cpm). […] Forty-eight hours later, proliferation (±SD) was determined by ^3H-thymidine incorporation. Alternatively, apoptosis was measured by flow cytometry after staining cells with Annexin-V (BD Pharmingen, San Diego, Calif., USA) and propidium iodide (Sigma). Cell number was counted under microscopy by staining cells with trypan blue. […]

IRAK-1, sequence (P51617 whole entry): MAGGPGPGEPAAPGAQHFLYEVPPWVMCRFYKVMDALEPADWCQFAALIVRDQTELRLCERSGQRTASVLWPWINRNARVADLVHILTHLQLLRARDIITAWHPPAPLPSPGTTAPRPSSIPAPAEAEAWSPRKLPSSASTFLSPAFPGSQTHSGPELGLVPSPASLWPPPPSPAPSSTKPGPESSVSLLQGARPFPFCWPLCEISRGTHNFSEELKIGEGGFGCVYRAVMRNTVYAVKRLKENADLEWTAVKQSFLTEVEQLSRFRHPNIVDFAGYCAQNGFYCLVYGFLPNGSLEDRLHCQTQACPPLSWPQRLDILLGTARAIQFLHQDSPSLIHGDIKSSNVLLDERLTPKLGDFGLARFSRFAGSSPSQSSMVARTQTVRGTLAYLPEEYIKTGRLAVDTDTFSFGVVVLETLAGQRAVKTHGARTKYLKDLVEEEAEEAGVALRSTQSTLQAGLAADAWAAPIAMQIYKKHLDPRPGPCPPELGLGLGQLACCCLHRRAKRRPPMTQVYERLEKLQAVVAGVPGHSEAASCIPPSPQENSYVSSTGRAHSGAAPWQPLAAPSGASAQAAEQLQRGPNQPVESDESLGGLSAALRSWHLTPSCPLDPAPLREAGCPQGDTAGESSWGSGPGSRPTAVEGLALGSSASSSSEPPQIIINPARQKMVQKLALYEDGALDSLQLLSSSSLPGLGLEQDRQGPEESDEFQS

| Compound | inhibition of IRAK-1 [1] | T-ALL numbers (CD7+) in peripheral blood [2] | number of viable cells ([3]; FIG. 14B) | apoptosis (sub-G1 phase, Annexin V) ([3]; FIG. 14D) | Proliferative effects of TLR ligands [4] |
| --- | --- | --- | --- | --- | --- |
| O=C(Nc1nc2ccccc2n1CCN1CCOCC1)c1cccc([N+](=O)[O-])c1 [IRAK-1,-4 inhibitor] | selectively inhibits | reduces T-ALL numbers | maintained a relatively constant number of viable cells | did not induce apoptosis | – |
| tripalmitoyl-S-(bis(palmitoyloxy)propyl)-Cys-Ser-(Lys)3-Lys [Pam3Cysk4] | – | – | – | – | ∘ |
